Where “and” joins values, the source holds several entries; their conditions need not be identical. Equal entries are not always repeated.
Tested on: 519858-162-T-J1-PDC complex spheroid viability
Assay: Anticancer human tumor 519858-162-T-J1-PDC patient-derived colon adenocarcinoma cell line growth inhibition [GQUAD]
Conditions: for viability, T/C: stronger effect = lower value; for IC50: curve of compound
Excerpt: DNA G-quadruplex Stabilizer Agents in Combinations in Complex Spheroids
A high-throughput screen of multi-cell type tumor spheroids was designed to identify active combinations of DNA G-quadruplex stabilizer agents and targeted small molecules. Complex spheroids include a stromal component modeled by human endothelial cells (HUVEC) and fibroblasts modeled by human mesenchymal stem cells (MSCs). The concentration ranges selected for each drug and investigational agent were based upon clinically achievable concentrations if the clinical Cmax of the agent was known.
Compounds. The drugs and investigational agents: pidnarulex (CX-5461; NSC782164), APTO-253 (NSC789042), BRACO-19 (NSC847499), peposertib (NSC802822), ceralasertib (NSC780249), elimusertib (NSC800525), camonsertib (NSC841442), AZD-1390 (NSC803789), olaparib (NSC753686), talazoparib (NSC767125), ART-558 (NSC835418), sotorasib (NSC818433), MRTX-1133 (NSC836407), SN-38 (NSC673596), topotecan (NSC609699), etoposide (NSC141540), doxorubicin (NSC123127), gemcitabine (NSC613327), 5-fluorouracil (NSC19893), paclitaxel (NSC125973), vemurafenib (NSC761431), panobinostat (NSC761190), R-306465 (JNJ-16241199; NSC773264), adavosertib (NSC754352), TP-3654 (NSC805149), carboplatin (NSC241240), KSQ-4279 (NSC840948), and staurosporine (NSC755774) were obtained from the National Cancer Institute (NCI) Developmental Therapeutics Program Chemical Repository (34). The FDA-approved anticancer drug set is available from the NCI Developmental Therapeutics Program. […] The stock solutions were prepared in dimethyl sulfoxide (DMSO, Sigma-Aldrich, St. Louis, MO, cat. D2650) at 800-fold the tested concentration and stored at -70 degrees C prior to their use. All drugs and investigational agents were tested over a range starting from a high concentration at or near the clinical Cmax and decreasing in half-log increments. If the clinical Cmax for an agent had not been determined, the highest concentration tested was 10 microM.
2.3 Cell Culture. All cells were maintained in an incubator at 37 degrees C and 5% CO2 with 95% humidity. The PDC lines were cultured according to standard operating procedures established by the NCI PDMR. All PDCs were thawed and cultured in Matrigel-coated flasks prepared with a working solution of 1X Ham's F-12 nutrient mix, without supplementation (Invitrogen, cat. 11765054), 100 U/mL penicillin-streptomycin (Invitrogen, cat. 15140122), and 2.5% Matrigel (Corning Inc., cat. 354248) for the first three passages. The 857933-349-R-J2-PDC line was cultured in 6C/Colon 1B media, which includes advanced DMEM/F-12 (Thermo Fisher Scientific, cat. 12634028), 10 mM HEPES (Thermo Fisher Scientific, cat. 15630080), 1X GlutaMAX supplement (Thermo Fisher Scientific, cat. 35050061), 0.1 mg/mL primocin (InvivoGen, cat. ant-pm-2), 10% defined fetal bovine serum, heat inactivated (HyClone Laboratories Inc., cat. SH30070.03HI), 50% L-WRN conditioned media (ATCC, cat. CRL-3276), 1.25 mM N-Acetyl-L-cysteine (Sigma-Aldrich, cat. A9165), 10 mM nicotinamide (Sigma-Aldrich, cat. N0636), 1X B-27 supplement (Thermo Fisher Scientific, cat. 17504044), 1X N-2 supplement (Thermo Fisher Scientific, cat. 17502048), 10 microM Y-27632 dihydrochloride (Tocris Bioscience, cat. 1254), and 50 ng/mL human EGF recombinant protein (Thermo Fisher Scientific, cat. PHG0311). The 485176-168-R4-J1-PDC line was cultured in Panc media, which includes all 6C/Colon 1B media components plus 100 ng/mL human FGF-10 (Thermo Fisher Scientific, cat. 100-26), 500 nM SB-431542 (Selleckchem, cat. S1067), and gastrin (Tocris, cat. 3006).
[…]
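Further: spheroids exposed to compounds for 7 days.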
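Wherever viability, T/C is given: 100% = DMSO vehicle control viability.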

IC50 | Structure (SMILES) | viability, T/C (compound 0.0316 µM) | viability, T/C (compound 0.1 µM) | viability, T/C (compound 0.316 µM) | viability, T/C (compound 1 µM) | viability, T/C (compound 3.16 µM) | viability, T/C (compound 10 µM)
> 10 µM and 5.66 µM | COc1cccc2c1C(=O)c1c(O)c3c(c(O)c1C2=O)CC(O)(C(=O)CO)CC3OC1CC(N)C(O)C(C)O1 (configuration not stated) | 72.4% and 79.2% and 88.8% | 87.7% and 101% and 80.3% | 96.6% and 91.6% and 71.9% | 104% and 73.1% and 83.7% | 68.2% and 95.1% and 53.9% | 82.8% and 70.4% and 46.2%
 | Cc1cnc(CNC(=O)c2c(=O)c3ccc(N4CCCN(C)CC4)nc3n3c2sc2ccccc23)cn1 |  |  |  | 69.1% [middle of 10 runs] |  | 52.6% [middle of 10 runs]
2.46 µM and 1.84 µM | CC(C)(O)C1CCC(Nc2ccc3ncc(-c4cccc(C(F)(F)F)c4)n3n2)CC1 (configuration not stated) | 79% | 119% and 115% | 104% and 106% | 80.3% and 73% | 34.5% and 13.3% | 48.6% and 45.4%
> 10 µM | O=C(c1cc(Cc2n[nH]c(=O)c3ccccc23)ccc1F)N1CCN(C(=O)C2CC2)CC1 | 86.5% and 87.2% | 88.4% and 82.1% | 115% and 95.4% | 102% and 79.3% | 86.3% and 93% | 103% and 69.9%
> 10 µM and 3.34 µM | CC1COCCN1c1cc(C2(O)CC3CCC(C2)O3)c2cnn(-c3ccn[nH]3)c2n1 (configuration not stated) | 109% and 94.9% | 107% and 101% | 89.3% and 63% | 70.9% and 74% | 93.6% and 47.8% | 66.3% and 38%
> 10 µM | COc1ccc([C@@H](O)c2cc(-c3ncnc4cc(N5CCOCC5)ccc34)c(F)cc2Cl)nn1 | 103% and 120% and 90.1% | 49.1% and 113% and 99.8% | 76% and 95.2% and 69% | 94% and 100% and 121% | 82.1% and 102% and 73.5% | 66.8% and 87.3% and 67.6%
